Values quoted from earlier work as cited in US20240262808A1, “XANTHINE OXIDASE INHIBITOR” (JIANGSU ATOM BIOSCIENCE AND PHARMACEUTICAL CO., LTD., priority 2021, published 2024).

Assays:
patients with gout = details: patients with gout, per treatment group; cited from earlier work
subjects = details: allopurinol used at maximum doses; cited from earlier work

Oc1ncnc2[nH]ncc12 [allopurinol, Allopurinol]
Sudden cardiac death, share of group (patients with gout): 1.8%
Subjects reaching the treatment endpoint (subjects): less than 50%
